{
  "source": "patent US8815898B2",
  "about": "“6,7-disubstituted-sioquinoline derivatives and their use” (Montisera Ltd, priority 2010, dated 2014)",
  "origin": "cited, not measured here",
  "data": [
    {"smiles": "c1ccc2c(c1)CCNC2", "note": "[TIQ]", "values": [
      {"measurement": "hydroxylated (C4 of the isoquinoline backbone) derivative in the urine", "setting": "most abundant metabolite in urine, 4-hydroxy derivative of the parent", "result": 2.7, "unit": "%"},
      {"measurement": "excreted in urine unchanged", "setting": "share excreted in urine unchanged", "result": 76, "unit": "%"},
      {"measurement": "exit the brain unchanged", "setting": "share of compound leaving the brain unchanged", "result": 90.4, "unit": "%"}
    ]}
  ]
}
